Where two headings read alike, the source gives them in different places.
Tests used:
[1] = test system: Leishmania tarentolae promastigotes (LtP); assay: Viability of LtP treated with EO main components (resazurin); assay type: cell-based
Description: LtP (200 μl, 2 × 10^6 parasites/ml) in YEM/phosphate‐buffered saline (PBS; 1:1 vol/vol, including antibiotics and 6 μM hemin) were distributed in 96‐well plates (nontreated plates). Compound stocks (in DMSO, max. 2% final concentration) were added, and five 1:3 serial dilutions were performed. Control rows with YEM/PBS (no activity) and with untreated LtP (vehicle, DMSO; 100% activity) were loaded, and the plate was incubated at 26 °C for 48 hr. Then resazurin (50 μl in PBS) was added (20 μM final concentration), and after 4 hr of incubation at 26 °C, the fluorescence of […] was measured at 560 nm excitation and 590 nm emission using a plate reader (PerkinElmer Enspire, Germany). Each compound was tested in triplicate.

[2] = test system: Leishmania tarentolae promastigotes (LtP); assay: Oxygen consumption of LtP, Clark-type electrode (immediate effect); assay type: cell-based; settings: 10-200 μM tested
Description: Direct inhibitors of mitochondrial ETC instantaneously influence mitochondrial oxygen consumption. To assay the effect of EO compounds on oxygen consumption of LtP, a Clark‐type oxygen electrode (Hansatech, Germany) and software MCREC were used. LtP at approximately 10^8 cells/ml in YEM (25 °C) were added and treated with increasing concentrations of EO compounds between 10 and 200 μM and for EO 5.6–89.6 μg/ml. Each concentration was assayed in quadruplicates, and the results were expressed as percentage of oxygen consumption in comparison with the untreated control LtP. The highest concentration of the vehicle (1% DMSO) caused only 2% inhibition. The uncoupling effect in short‐term and long‐term (0, 6, and 24 hr) incubations with Asc (200 μM) was studied in Oligo‐inhibited (5 μM) and uncoupler‐stimulated (0.5 μM CCCP) LtP in Schneider's medium supplemented with 6 μM hemin. Four replicates were performed for each concentration.

[3] = target: ubiquinol:cytochrome c oxidoreductase (complex III), LtP‐Mit (Leishmania tarentolae, UniProt A0A640KA58+A0A640KYQ2+P14548); assay: dUQH2:cyt c3+ oxidoreductase (complex III) activity in LtP‐Mit; assay type: biochemical
Sequence of ubiquinol:cytochrome c oxidoreductase (complex III), LtP‐Mit (P14548 whole entry): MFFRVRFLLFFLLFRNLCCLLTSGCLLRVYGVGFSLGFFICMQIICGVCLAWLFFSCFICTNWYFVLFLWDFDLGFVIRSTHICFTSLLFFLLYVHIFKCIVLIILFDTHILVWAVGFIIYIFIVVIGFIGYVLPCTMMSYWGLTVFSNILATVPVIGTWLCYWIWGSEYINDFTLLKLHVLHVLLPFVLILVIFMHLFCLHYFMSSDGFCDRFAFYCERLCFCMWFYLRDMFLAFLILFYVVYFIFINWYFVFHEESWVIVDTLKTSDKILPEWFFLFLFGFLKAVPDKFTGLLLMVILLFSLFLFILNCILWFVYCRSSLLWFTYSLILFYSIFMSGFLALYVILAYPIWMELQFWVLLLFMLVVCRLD
Sequence of ubiquinol:cytochrome c oxidoreductase (complex III), LtP‐Mit (A0A640KA58 entry or part of it): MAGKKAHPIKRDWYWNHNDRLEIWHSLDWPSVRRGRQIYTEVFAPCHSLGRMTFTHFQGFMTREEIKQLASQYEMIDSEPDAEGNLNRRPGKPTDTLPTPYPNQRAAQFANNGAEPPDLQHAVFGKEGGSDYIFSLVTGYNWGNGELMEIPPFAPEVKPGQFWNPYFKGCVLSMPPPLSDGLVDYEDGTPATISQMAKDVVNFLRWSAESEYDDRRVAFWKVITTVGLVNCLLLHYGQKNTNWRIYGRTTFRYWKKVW
Sequence of ubiquinol:cytochrome c oxidoreductase (complex III), LtP‐Mit (A0A640KYQ2 entry or part of it): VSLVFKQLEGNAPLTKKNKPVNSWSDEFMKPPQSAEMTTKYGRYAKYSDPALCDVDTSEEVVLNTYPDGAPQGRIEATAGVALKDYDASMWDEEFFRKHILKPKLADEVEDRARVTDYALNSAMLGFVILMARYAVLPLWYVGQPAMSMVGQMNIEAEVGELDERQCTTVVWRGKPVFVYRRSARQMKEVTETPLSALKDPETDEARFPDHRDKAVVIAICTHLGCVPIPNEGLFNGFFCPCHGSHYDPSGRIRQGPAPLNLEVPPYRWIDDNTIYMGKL
Description: (§1) To measure the ubiquinol:cyt c ^3+ oxidoreductase (complex III) activity, the reduction of 100 μM cyt c ^3+ at 550 nm using 540 nm as reference was monitored in the presence of the artificial substrate decylubiquinol (dUQH2, 75 μM), which was prepared from dUQ by reduction (Müllebner et al., 2010). The dUQH2:cyt c ^3+ oxidoreductase activities of 40 μg protein/ml of LtP‐Mit or 3.2 μg protein/ml of BH‐SMP were measured in 1 ml of buffer containing 250 mM sucrose, 50 mM KH2PO4, 0.2 mM EDTA (pH 7.2), 2 mM KCN, and 4 mM NaN3. Respective EO compounds were added 50 s after starting the time scan, and the reaction was started after 100 s with dUQH2 and was monitored for additional 150 s. The activity of noninhibited dUQH2:cyt c ^3+ oxidoreductase activity was measured in the presence of the vehicle for the respective inhibitor (DMSO). All inhibitor concentrations were tested in triplicate. The reduction rates for cyt c ^3+ were calculated from the time trace of the absorption difference at 550 − 540 nm (ε550–540 nm = 19 mmol^−1 L cm^−1). Reduction rates in the presence of DMSO (maximum amount that was introduced by test compound stocks) were set to 100%, and the remaining activities in the presence of EO compounds were expressed in %. Three replicates were measured for each concentration.

[4] = target: T1, cytochrome bc 1 complex purified from Saccharomyces cerevisiae (Saccharomyces cerevisiae, UniProt P00163+P07143+P08067); assay: dUQH2:cyt c3+ oxidoreductase activity of isolated ScY‐bc 1; assay type: biochemical
T1 construct: endogenous in cells; host or cells: Native complex purified in house from yeast submitochondrial particles (Triton X-100, hydroxyapatite)
Description: Cytochrome bc 1 complex was obtained from ScY‐SMP and BH‐SMP following published methodology (Geier, Schägger, Brandt, Colson, & von Jagow, 1992) with minor modifications as described below. SMP were resuspended in 1.1% Triton X‐100 and […] phenylmethylsulfonyl fluoride, pH 7.2, and centrifuged for 1 hr at 100,000 g. The bc 1 complex in the sediment was solubilized with 2.2% Triton X‐100, 600 mM NaCl, 10 mM KH2PO4, and 10 mM EDTA, pH 7.2. After centrifugation at 100,000 g for 1 hr, the supernatant was mixed with 50 ml of hydroxyapatite, equilibrated with 0.5% Triton X‐100, 250 mM NaCl, and 100 mM NaHPO4, pH 7.2. After washing the hydroxyapatite with 50 ml of equilibration buffer ([…], 100 mM NaHPO4, and 250 mM NaCl), the bc 1 complexes from ScY‐SMP and BH‐SMP (ScY‐bc 1 and BH‐bc 1, respectively) were eluted from hydroxyapatite with 250 mM KH2PO4 and 0.25% Triton X‐100, pH 7.2, and stored in liquid nitrogen.
as §1, with “Reduction rates in the presence of DMSO (maximum amount that was introduced by test compound stocks) were set to 100%, and the remaining activities in the presence of EO compounds were expressed in %.” left out, “concentration. […]” for “concentration.”

[5] = test system: Leishmania tarentolae promastigotes (LtP); assay: Immediate mitochondrial uncoupling in LtP, OxoPlates with oligomycin; assay type: cell-based; settings: LtP + 5 μM Oligo, OxoPlates
Description: U‐shaped 96‐well OxoPlates (OP96U PreSens, Germany) with integrated fluorescence oxygen sensors were used for parallel LtP experiments. Oxygen concentrations were measured using a PerkinElmer Enspire fluorescence plate reader using excitation wavelength 540 nm and two emission wavelengths (reference dye 590 nm, IRef, and O2‐sensing dye 650 nm, IInd). The oxygen concentration (μM O2) was calculated according to manufacturer's instructions as described previously (Monzote et al., 2016). Measurements with LtP were performed in air‐saturated BHI medium. […] Immediately before the measurement, 150 μl of well‐aerated cell suspensions (13 × 10^7 LtP per ml) was added to the respective wells. Finally, on the top of each well, 50 μl of paraffin oil was layered. Two minutes after mixing, the fluorescence measurements at 27 °C were started, and eight measurements at 5‐min intervals were performed. From the linear part of the O2 decay, the slopes were calculated and corrected for the medium drift for further statistic evaluation. All measurements were performed at least in triplicate. For bioenergetic characterization, the ATP synthase inhibitor Oligo (5 μM) and as positive control CCCP (0.7–5 μM) were used. Respiratory control ratio (RCR) was calculated from respiration rate in the presence of Oligo and compounds/uncoupler divided by the rate in the presence of Oligo.

[6] = test system: Leishmania amazonensis promastigotes (LaP); set-up: method as in Monzote, Garcia, et al., 2014; settings: ref Monzote, Garcia, et al., 2014, cited from earlier work; for IC50: previous study, read-out: IC50 against LaP
[7] = 48 hr at 26 °C, resazurin, n = 3, read-out: IC50, viability of LtP
[8] = mean ± SD, three experiments, read-out: IC50 Complex III LtP‐Mit
[9] = immediate inhibition, five experiments, read-out: IC50 ± SD ScY‐bc 1

SMILES	IC50 ([1]; 48 h, read-out: IC50, viability of LtP)	Inhibition of LtP oxygen consumption (in words) [2]	IC50 [3]	IC50 [4]	Immediate uncoupling effect (stimulation of Oligo-inhibited oxygen consumption) [5]	IC50 [6]	IC50 values for L. amazonensis in the presence of iron chelators ([6]; with iron chelators)	IC50 [1, 7]	IC50 [3, 8]	IC50 [4, 9]	IC50 ([2]; Leishmania tarentolae, read-out: IC50, inhibition of LtP oxygen consumption)	Oxygen consumption on top of the inhibition by Oligo ([5]; highest concentration 200 μM)
CC(C)C12C=CC(C)(CC1)OO2 (centres unmarked) [Asc, ascaridole]	24.5 ± 3 µM	failed to strongly inhibit oxygen consumption	131 ± 3.5 µM	675 ± 6 µM	Neither Car nor Asc (Figure 6a,b) showed an uncoupling effect	0.6 ± 0.06 µM	strongly increased	–	–	–	–	–
Cc1ccc(C(C)C)cc1O [Car, carvacrol]	–	failed to strongly inhibit oxygen consumption	–	–	Neither Car nor Asc (Figure 6a,b) showed an uncoupling effect	101 ± 30 µM	–	11.6 ± 3.4 µM	150 ± 2.3 µM	941 ± 41 µM	–	–
C=C1CC[C@H]2O[C@]2(C)CC[C@@H]2[C@@H]1CC2(C)C [Caryo, caryophyllene oxide]	–	strongly inhibited LtP oxygen consumption	–	–	–	22.2 ± 10.4 µM	–	36 ± 17.6 µM	54.8 ± 4 µM	179 ± 1 µM	98 ± 2 µM	totally inhibited the oxygen consumption
